Assay results as given in the supplement of paper PMC10307832.

Assays:
Test in all cases: relative viability (nuclei count vs DMSO), 5 days (fraction); higher = more cells survive
[1] = compound: Cc1cnc(Nc2ccc(OCCN3CCCC3)cc2)nc1Nc1cccc(S(=O)(=O)NC(C)(C)C)c1 [Fedratinib] + CCNC(=O)c1noc(-c2cc(C(C)C)c(O)cc2O)c1-c1ccc(CN2CCOCC2)cc1 [Luminespib] (partner 0.01 µM)
Outline: (§1)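 Values are medians from duplicate plates. Each reflects relative viability, defined as the nuclei count of treated wells over that of vehicle wells. Lung cancer cell lines in 1536-well plates were pin-tool dosed one day after seeding with one drug alone or with a fixed anchor-drug dose plus five library-drug doses (not always all listed) in √10 steps, then fixed, stained and imaged at 4× after 5 days.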

[2] = compound: Cc1cnc(Nc2ccc(OCCN3CCCC3)cc2)nc1Nc1cccc(S(=O)(=O)NC(C)(C)C)c1 [Fedratinib] + Cc1nc(Nc2ncc(C(=O)Nc3c(C)cccc3Cl)s2)cc(N2CCN(CCO)CC2)n1 [Dasatinib] (partner 0.075 µM)
Outline: as §1

[3] = compound: COC1=CC=C(C=C1)COC2=C(C=C(C=C2)CC3=CN=C(N=C3N)N)OC [GW-2580] + O=C(CCCCCCC(=O)Nc1ccccc1)NO [Vorinostat] (partner 1 µM)
Outline: as §1

[4] = compound: COC1=CC=C(C=C1)COC2=C(C=C(C=C2)CC3=CN=C(N=C3N)N)OC [GW-2580] + CC1(C)CCC(c2ccc(Cl)cc2)=C(CN2CCN(c3ccc(C(=O)NS(=O)(=O)c4ccc(N[C@H](CCN5CCOCC5)CSc5ccccc5)c(S(=O)(=O)C(F)(F)F)c4)cc3)CC2)C1 [Navitoclax] (partner 0.5 µM)
Outline: as §1

[5] = compound: COC1=CC=C(C=C1)COC2=C(C=C(C=C2)CC3=CN=C(N=C3N)N)OC [GW-2580] + CS(=O)(=O)CCNCc1ccc(-c2ccc3ncnc(Nc4ccc(OCc5cccc(F)c5)c(Cl)c4)c3c2)o1 [Lapatinib] (partner 2 µM)
Outline: as §1

In the case of NCI-H596, the relative viability ([1]; first compound 0.1 µM) is reported as 0.962, the relative viability ([1]; first compound 0.3162 µM) is reported as 1.2 and the relative viability ([1]; first compound 1 µM) is reported as 0.875. For the same cell line, the relative viability ([2]; first compound 0.1 µM) was 0.512, the relative viability ([2]; first compound 0.3162 µM) was 0.628 and the relative viability ([2]; first compound 1 µM) was 0.538. For the same cell line, the relative viability ([3]; first compound 0.08 µM) was 0.591, the relative viability ([3]; first compound 0.8 µM) was 0.595 and the relative viability ([3]; first compound 2.53 µM) was 0.495. It also gave a relative viability ([3]; first compound 8 µM) of 0.564, a relative viability ([4]; first compound 0.08 µM) of 1.05 and a relative viability ([4]; first compound 0.8 µM) of 0.982. For the same cell line, the relative viability ([4]; first compound 2.53 µM) was 0.94, the relative viability ([4]; first compound 8 µM) was 0.9 and the relative viability ([5]; first compound 0.08 µM) was 1.25. The relative viability ([5]; first compound 0.8 µM) was 1.2, the relative viability ([5]; first compound 2.53 µM) was 0.996 and the relative viability ([5]; first compound 8 µM) was 1.2.
Work on NCI-H727 yielded a relative viability ([1]; first compound 0.1 µM) of 0.269, a relative viability ([1]; first compound 0.3162 µM) of 0.301 and a relative viability ([1]; first compound 1 µM) of 0.375. It also gave a relative viability ([2]; first compound 0.1 µM) of 0.296, a relative viability ([2]; first compound 0.3162 µM) of 0.299 and a relative viability ([2]; first compound 1 µM) of 0.392. For the same cell line, the relative viability ([3]; first compound 0.08 µM) was 1.09, the relative viability ([3]; first compound 0.8 µM) was 1.26 and the relative viability ([3]; first compound 2.53 µM) was 1.25. The relative viability ([3]; first compound 8 µM) was 1.26, the relative viability ([4]; first compound 0.08 µM) was 0.454 and the relative viability ([4]; first compound 0.8 µM) was 0.538. For the same cell line, the relative viability ([4]; first compound 2.53 µM) was 0.402, the relative viability ([4]; first compound 8 µM) was 0.384 and the relative viability ([5]; first compound 0.08 µM) was 0.792. It also gave a relative viability ([5]; first compound 0.8 µM) of 1.04, a relative viability ([5]; first compound 2.53 µM) of 0.735 and a relative viability ([5]; first compound 8 µM) of 0.791.
For H3255, the relative viability ([1]; first compound 0.1 µM) was 0.913, the relative viability ([1]; first compound 0.3162 µM) was 0.932 and the relative viability ([1]; first compound 1 µM) was 0.59. The relative viability ([2]; first compound 0.1 µM) was 0.397, the relative viability ([2]; first compound 0.3162 µM) was 0.345 and the relative viability ([2]; first compound 1 µM) was 0.293. It also gave a relative viability ([3]; first compound 0.08 µM) of 0.802, a relative viability ([3]; first compound 0.8 µM) of 0.875 and a relative viability ([3]; first compound 2.53 µM) of 0.75. It also gave a relative viability ([3]; first compound 8 µM) of 0.771, a relative viability ([4]; first compound 0.08 µM) of 0.5 and a relative viability ([4]; first compound 0.8 µM) of 0.633. For the same cell line, the relative viability ([4]; first compound 2.53 µM) was 0.4, the relative viability ([4]; first compound 8 µM) was 0.452 and the relative viability ([5]; first compound 0.08 µM) was 0.216. For the same cell line, the relative viability ([5]; first compound 0.8 µM) was 0.265, the relative viability ([5]; first compound 2.53 µM) was 0.234 and the relative viability ([5]; first compound 8 µM) was 0.249.
Work on SK-MES-1 yielded a relative viability ([1]; first compound 0.1 µM) of 0.741, a relative viability ([1]; first compound 0.3162 µM) of 0.773 and a relative viability ([1]; first compound 1 µM) of 0.609. The relative viability ([2]; first compound 0.1 µM) was 0.285, the relative viability ([2]; first compound 0.3162 µM) was 0.427 and the relative viability ([2]; first compound 1 µM) was 0.272. For the same cell line, the relative viability ([3]; first compound 0.08 µM) was 1.31, the relative viability ([3]; first compound 0.8 µM) was 1.33 and the relative viability ([3]; first compound 2.53 µM) was 0.993. The relative viability ([3]; first compound 8 µM) was 1.16, the relative viability ([4]; first compound 0.08 µM) was 1.4 and the relative viability ([4]; first compound 0.8 µM) was 1.18. For the same cell line, the relative viability ([4]; first compound 2.53 µM) was 1.1, the relative viability ([4]; first compound 8 µM) was 1.33 and the relative viability ([5]; first compound 0.08 µM) was 0.47. For the same cell line, the relative viability ([5]; first compound 0.8 µM) was 0.496, the relative viability ([5]; first compound 2.53 µM) was 0.392 and the relative viability ([5]; first compound 8 µM) was 0.474.
NCI-H1437 was tested, and the relative viability ([1]; first compound 0.1 µM) was 1.11, the relative viability ([1]; first compound 0.3162 µM) was 1.04 and the relative viability ([1]; first compound 1 µM) was 1.13. For the same cell line, the relative viability ([2]; first compound 0.1 µM) was 0.301, the relative viability ([2]; first compound 0.3162 µM) was 0.409 and the relative viability ([2]; first compound 1 µM) was 0.329. It also gave a relative viability ([3]; first compound 0.08 µM) of 0.923, a relative viability ([3]; first compound 0.8 µM) of 0.918 and a relative viability ([3]; first compound 2.53 µM) of 0.674. The relative viability ([3]; first compound 8 µM) was 0.534, the relative viability ([4]; first compound 0.08 µM) was 1.16 and the relative viability ([4]; first compound 0.8 µM) was 1.15. For the same cell line, the relative viability ([4]; first compound 2.53 µM) was 0.928, the relative viability ([4]; first compound 8 µM) was 0.879 and the relative viability ([5]; first compound 0.08 µM) was 0.82. The relative viability ([5]; first compound 0.8 µM) was 0.965, the relative viability ([5]; first compound 2.53 µM) was 0.723 and the relative viability ([5]; first compound 8 µM) was 0.781.
Work on LU99A yielded a relative viability ([1]; first compound 0.1 µM) of 0.271, a relative viability ([1]; first compound 0.3162 µM) of 0.302 and a relative viability ([1]; first compound 1 µM) of 0.216. The relative viability ([2]; first compound 0.1 µM) was 0.494, the relative viability ([2]; first compound 0.3162 µM) was 0.508 and the relative viability ([2]; first compound 1 µM) was 0.42. For the same cell line, the relative viability ([3]; first compound 0.08 µM) was 0.646, the relative viability ([3]; first compound 0.8 µM) was 0.522 and the relative viability ([3]; first compound 2.53 µM) was 0.435. The relative viability ([3]; first compound 8 µM) was 0.528, the relative viability ([4]; first compound 0.08 µM) was 0.887 and the relative viability ([4]; first compound 0.8 µM) was 0.97. The relative viability ([4]; first compound 2.53 µM) was 0.681, the relative viability ([4]; first compound 8 µM) was 0.729 and the relative viability ([5]; first compound 0.08 µM) was 1.07. For the same cell line, the relative viability ([5]; first compound 0.8 µM) was 1.14, the relative viability ([5]; first compound 2.53 µM) was 0.698 and the relative viability ([5]; first compound 8 µM) was 1.01.
Work on HCC-827 yielded a relative viability ([1]; first compound 0.1 µM) of 0.436, a relative viability ([1]; first compound 0.3162 µM) of 0.698 and a relative viability ([1]; first compound 1 µM) of 0.492. For the same cell line, the relative viability ([2]; first compound 0.1 µM) was 0.249, the relative viability ([2]; first compound 0.3162 µM) was 0.344 and the relative viability ([2]; first compound 1 µM) was 0.298. For the same cell line, the relative viability ([3]; first compound 0.08 µM) was 0.652, the relative viability ([3]; first compound 0.8 µM) was 0.915 and the relative viability ([3]; first compound 2.53 µM) was 0.828. The relative viability ([3]; first compound 8 µM) was 0.832, the relative viability ([4]; first compound 0.08 µM) was 1.06 and the relative viability ([4]; first compound 0.8 µM) was 0.952. It also gave a relative viability ([4]; first compound 2.53 µM) of 0.898, a relative viability ([4]; first compound 8 µM) of 0.92 and a relative viability ([5]; first compound 0.08 µM) of 0.225. The relative viability ([5]; first compound 0.8 µM) was 0.211, the relative viability ([5]; first compound 2.53 µM) was 0.167 and the relative viability ([5]; first compound 8 µM) was 0.152.
LK-2 gave a relative viability ([1]; first compound 0.1 µM) of 0.173, a relative viability ([1]; first compound 0.3162 µM) of 0.169 and a relative viability ([1]; first compound 1 µM) of 0.186. For the same cell line, the relative viability ([2]; first compound 0.1 µM) was 0.206, the relative viability ([2]; first compound 0.3162 µM) was 0.227 and the relative viability ([2]; first compound 1 µM) was 0.168. The relative viability ([3]; first compound 0.08 µM) was 0.242, the relative viability ([3]; first compound 0.8 µM) was 0.28 and the relative viability ([3]; first compound 2.53 µM) was 0.205. The relative viability ([3]; first compound 8 µM) was 0.311, the relative viability ([4]; first compound 0.08 µM) was 0.983 and the relative viability ([4]; first compound 0.8 µM) was 1.09. The relative viability ([4]; first compound 2.53 µM) was 0.616, the relative viability ([4]; first compound 8 µM) was 1.03 and the relative viability ([5]; first compound 0.08 µM) was 0.972. For the same cell line, the relative viability ([5]; first compound 0.8 µM) was 0.952, the relative viability ([5]; first compound 2.53 µM) was 0.513 and the relative viability ([5]; first compound 8 µM) was 0.735.
